Counter-ions that a name gives are not always drawn.
| melting point | Compound |
| --- | --- |
| 222 to 227 °C | CCOCc1nc2c(N)nc3c4c2n1CC(C)(C)N4CCC3 (as salt: hydrochloride) [Example 6, 2-(Ethoxymethyl)-4,4-dimethyl-3,4,6,7-tetrahydro-5H-1,2a,4a,8-tetraazacyclopenta[cd]phenalen-9-amine hydrochloride] |
| 172 to 173 °C | CCOCc1nc2c(N)nc3c4c2n1CCN4CCC3 [Example 1, 2-(Ethoxymethyl)-3,4,6,7-tetrahydro-5H-1,2a,4a,8-tetraazacyclopenta[cd]phenalen-9-amine] |
| 171 to 172 °C | COCCc1nc2c(N)nc3c4c2n1CCN4CCC3 [Example 2, 2-(2-Methoxyethyl)-3,4,6,7-tetrahydro-5H-1,2a,4a,8-tetraazacyclopenta[cd]phenalen-9-amine] |
| 225 to 230 °C | CCCc1nc2c(N)nc3c4c2n1CCN4CCC3 [Example 3, 2-Propyl-3,4,6,7-tetrahydro-5H-1,2a,4a,8-tetraazacyclopenta[cd]phenalen-9-amine] |
| 164.5 to 166.1 °C | CCOCc1nc2c(N)nc3c4c2n1[C@H](C)CN4CCC3 [Example 4, (3R)-2-(Ethoxymethyl)-3-methyl-3,4,6,7-tetrahydro-5H-1,2a,4a,8-tetraazacyclopenta[cd]phenalen-9-amine] |
| 164.1 to 165.6 °C | CCOCc1nc2c(N)nc3c4c2n1[C@@H](C)CN4CCC3 [Example 5, (3S)-2-(Ethoxymethyl)-3-methyl-3,4,6,7-tetrahydro-5H-1,2a,4a,8-tetraazacyclopenta[cd]phenalen-9-amine] |
